Like-named read-outs stand apart in the source and are kept apart here. Where only a bound is given, the exact number is not on record here.

This is an account of results in US7045532B2 (Millennium Pharmaceuticals, Inc., priority 1999, dated 2006).

One assay addresses T1, ACE-2 (Homo sapiens, UniProt Q9BYF1).
T1 construct: a stop codon inserted after the serine immediately preceding the transmembrane domain; made in house; host or cells: CHO K1 cells (transient transfection, purified from conditioned medium)
The assay is described as follows: ACE-2 Competitive Substrate Assay (ACS Assay). The class given is biochemical.

A further assay addresses T2, ACE (Sigma, A2580) (Sus scrofa, UniProt F1RRW5).
T2 construct: ACE from porcine kidney; purchased Sigma A2580; host or cells: porcine kidney
T2 sequence (F1RRW5 34-1309): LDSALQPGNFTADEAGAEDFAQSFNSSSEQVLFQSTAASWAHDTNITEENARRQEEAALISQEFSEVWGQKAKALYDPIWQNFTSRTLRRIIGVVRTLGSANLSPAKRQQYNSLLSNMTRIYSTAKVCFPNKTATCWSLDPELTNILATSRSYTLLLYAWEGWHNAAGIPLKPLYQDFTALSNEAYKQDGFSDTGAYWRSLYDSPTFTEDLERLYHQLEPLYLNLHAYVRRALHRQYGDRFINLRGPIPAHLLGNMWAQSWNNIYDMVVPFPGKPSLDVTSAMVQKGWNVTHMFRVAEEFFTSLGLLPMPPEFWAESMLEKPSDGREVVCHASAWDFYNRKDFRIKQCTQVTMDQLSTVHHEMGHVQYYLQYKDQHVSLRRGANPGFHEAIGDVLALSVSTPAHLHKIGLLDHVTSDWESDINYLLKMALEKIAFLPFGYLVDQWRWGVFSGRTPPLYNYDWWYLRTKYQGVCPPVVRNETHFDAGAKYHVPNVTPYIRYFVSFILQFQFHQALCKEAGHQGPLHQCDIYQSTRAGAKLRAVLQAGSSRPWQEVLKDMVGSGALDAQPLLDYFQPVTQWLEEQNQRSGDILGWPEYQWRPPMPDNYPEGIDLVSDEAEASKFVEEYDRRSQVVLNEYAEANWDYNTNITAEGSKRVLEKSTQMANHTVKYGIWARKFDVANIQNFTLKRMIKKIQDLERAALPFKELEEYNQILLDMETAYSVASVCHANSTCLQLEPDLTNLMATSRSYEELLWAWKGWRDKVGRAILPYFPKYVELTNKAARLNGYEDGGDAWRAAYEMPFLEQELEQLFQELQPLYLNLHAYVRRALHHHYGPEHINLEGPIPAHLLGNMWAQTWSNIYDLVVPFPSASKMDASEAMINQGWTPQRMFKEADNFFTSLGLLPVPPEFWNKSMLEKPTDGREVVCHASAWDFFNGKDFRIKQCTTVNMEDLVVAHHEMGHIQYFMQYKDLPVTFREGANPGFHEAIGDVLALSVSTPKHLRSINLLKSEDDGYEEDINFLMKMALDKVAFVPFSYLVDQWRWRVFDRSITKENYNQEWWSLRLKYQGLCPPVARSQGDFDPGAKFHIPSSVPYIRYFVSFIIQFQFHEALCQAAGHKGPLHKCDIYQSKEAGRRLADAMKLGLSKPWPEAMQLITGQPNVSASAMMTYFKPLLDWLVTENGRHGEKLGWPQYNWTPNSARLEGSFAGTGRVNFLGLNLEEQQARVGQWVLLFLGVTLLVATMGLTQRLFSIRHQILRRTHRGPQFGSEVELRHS
As to the kind of experiment: ACE enzymatic activity assay. In kind it is biochemical, porcine. The following applies: Ki class, compounds tested in 5% DMSO. The procedure:
ACE (Sigma, A2580) enzymatic activity was assayed in microtiter plates using the following protocol. ACE assay buffer was made from 50 mM HEPES (Sigma), 300 mM sodium chloride (Sigma), and 0.01% Brij-35 (Pierce Chemical Co) at pH 7.5.
Reactions were mixed and incubated at 25° C. Enzymatic cleavage of the substrate is marked by a fluorescence change (excitation 330 nm, emission 415 nm).
The activity of the test compounds was investigated using the procedure outlined above. The compounds were tested in 5% DMSO. Enzyme activity was measured at 12 compound concentrations. […]. […]

The next assay deals with T3, Carboxypeptidase A (Bos taurus, UniProt P00730).
T3 sequence (P00730 111-419): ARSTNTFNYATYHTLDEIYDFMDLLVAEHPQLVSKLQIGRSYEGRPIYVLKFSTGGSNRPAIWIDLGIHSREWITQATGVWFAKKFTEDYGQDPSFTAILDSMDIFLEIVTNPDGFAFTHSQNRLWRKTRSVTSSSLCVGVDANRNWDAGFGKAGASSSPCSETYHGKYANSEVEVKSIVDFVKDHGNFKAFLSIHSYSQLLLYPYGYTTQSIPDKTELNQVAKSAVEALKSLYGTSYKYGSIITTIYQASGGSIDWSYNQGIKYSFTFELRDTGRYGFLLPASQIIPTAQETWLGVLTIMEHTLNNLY
The assay is described as follows: Carboxypeptidase A activity assay. The class given is biochemical. The following applies: Ki class, compounds tested in 5% DMSO. The procedure: Carboxypeptidase A activity was measured using a literature assay (Holmquist and Riordan, “Carboxypeptidase A,” Methods of Enzymatic Analysis (1984) p. 44–60). The assay was adapted to a 96 well format by adjusting to a 300 μL assay volume and using ultra-thin bottom plates (Costar/Corning) read at 328 nm. The assay was stopped using EDTA.
The activity of the test compounds was investigated using the procedure outlined above. The compounds were tested in 5% DMSO. Enzyme activity was measured at 12 compound concentrations. The Ki was calculated by using Ki=Kiapp/(1+[S]/Km).
To determine whether a test compound is capable of modulating carboxypeptidase A's ability to cleave a substrate the method described in Holmquist and Riordan, Carboxypeptidase A, p44–60, Peptidase and Their Inhibitors in Method of Enzymatic Analysis (1984), may be used.
The assay may be adapted to a 96 well format by adjusting to a 300 μl assay volume and using ultrathin bottom plates (Costar/Coming) read at 328 nm with a final assay volume of 300 μl. The assay may be stopped using EDTA.

Where [1] appears, read: Ki class, compounds tested in 5% DMSO, 12 concentrations, read-out: Human ACE-2 Activity.
The mark [2] stands for this setting: Ki class, compounds tested in 5% DMSO, 12 compound concentrations, Ki=Kiapp/(1+[S]/Km), read-out: Human ACE-2 Activity.
[3] abbreviates: Table 3, very good ACE-2 inhibiting compounds, species not given, read-out: ACE-2 Activity, Ki.

T1 sequence (Q9BYF1 18-740 limits assumed): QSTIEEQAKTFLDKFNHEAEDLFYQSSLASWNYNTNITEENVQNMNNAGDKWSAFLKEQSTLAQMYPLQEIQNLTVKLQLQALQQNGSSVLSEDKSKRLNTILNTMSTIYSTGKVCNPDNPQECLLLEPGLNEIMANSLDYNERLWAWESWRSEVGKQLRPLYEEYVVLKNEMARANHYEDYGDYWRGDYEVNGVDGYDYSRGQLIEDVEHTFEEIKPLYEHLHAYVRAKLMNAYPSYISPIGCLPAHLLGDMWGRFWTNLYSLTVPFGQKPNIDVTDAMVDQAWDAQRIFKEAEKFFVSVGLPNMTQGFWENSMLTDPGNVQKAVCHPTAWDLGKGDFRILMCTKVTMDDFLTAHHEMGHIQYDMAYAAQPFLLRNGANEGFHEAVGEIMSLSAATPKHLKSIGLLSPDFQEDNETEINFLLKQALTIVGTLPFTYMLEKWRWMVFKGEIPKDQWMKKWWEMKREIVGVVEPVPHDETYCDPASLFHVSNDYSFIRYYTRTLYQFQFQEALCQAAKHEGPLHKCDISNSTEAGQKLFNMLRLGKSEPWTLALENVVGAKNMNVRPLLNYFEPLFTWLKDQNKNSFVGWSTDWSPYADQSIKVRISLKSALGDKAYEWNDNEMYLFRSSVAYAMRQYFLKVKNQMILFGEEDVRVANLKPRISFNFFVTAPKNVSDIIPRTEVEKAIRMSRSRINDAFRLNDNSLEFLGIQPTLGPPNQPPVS
Description for ACE-2: An example of such an assay is the ACE-2 Competitive Substrate Assay (ACS Assay).
ACE-2 enzymatic activity was assayed in microtitre plates by the following procedure. The ACE-2 assay buffer used contained 50 mM MES (Boehringer-Mannheim), 300 mM NaCl (Sigma) and 0.01% Brij-35 (Pierce Chemical Co.) at pH 6.5.
The following reagents, equipment, stock solutions, and working solutions are used for the ACE-2 assay.
The assay buffer is prepared using 50 mM Mes, 300 mM NaCl, and 0.01% Brij 35, pH 6.5. These components are measured and made up to approximately 800 ml with nanopure water. Using 1M NaOH the pH is adjusted to 6.5 and the solution is then made up to the final volume of 1 L using nanopure water. The buffer is filtered through a 0.45 um disposable filter unit and stored at +4° C. until needed.
This working solution maintains activity for up to 8 hours at room temperature.
The working ACE-2 solution (for using with Mca-APK(Dnp)) is prepared by thawing ACE-2 and diluting it to a concentration of 1 nM using the assay buffer at room temperature.
These solutions are stable up to 8 hours but can not be frozen-thawed for reuse.
Multiple well plates are used for this experiment.
Approximately 360 compounds are tested per plate. Five μl per of each test compound is added in each well. […] Immediately thereafter, 20 μl of Mca-XXX(Dnp) working solution is added per well and mixed for 30 seconds. The reaction is allowed to progress for approximately 60 minutes.
After approximately 60 minutes, 20 μl of 50 mM EDTA is added per well (reaction is linear up to 90 minutes) and mixed for 30 seconds. At this point the fluorescent signal is stable up to 20 hours at room temperature.

As to `CCC(N[C@@H](Cc1c[nH]cn1)C(=O)O)C(=O)O` (stereo partly drawn), the Ki was over 0.5 µM at ACE-2 (setting [1]); over 50 µM at ACE (Sigma, A2580) (12 concentrations); over 50 µM on Carboxypeptidase A (12 concentrations).
Turning to `CC(=O)N(C(CCc1ccccc1)C(=O)O)[C@@H](CC(C)C)C(=O)O` (single isomer, unassigned) [AT, 2-[Acetyl-(1-carboxy-3-phenyl-propyl)-amino]-4-methyl-pentanoic acid], the Ki at ACE-2 (setting [1]) was over 0.5 µM; at ACE (Sigma, A2580) (12 concentrations) it was over 50 µM; on Carboxypeptidase A (12 concentrations), over 50 µM.
In the case of `CCCCC(CC(=O)O)N[C@@H](Cc1c[nH]cn1)C(=O)O` (single isomer, unassigned) [ES, 3-[1-Carboxy-2-(1H-imidazol-4-yl)-ethylamino]heptanoic acid], the Ki on ACE-2 (setting [1]) was over 0.5 µM; on ACE (Sigma, A2580) (12 concentrations), over 50 µM; at Carboxypeptidase A (12 concentrations) it was over 50 µM.
Take `CC(C)CC(N[C@@H](Cc1cncn1COCc1ccccc1)C(N)=O)C(=O)O` (single isomer, unassigned) [FB, 2-[2-(3-Benzyloxymethyl-3H-imidazol-4-yl)-1-carbamoyl-ethylamino]-4-methyl-pentanoic acid]: the Ki on ACE-2 (setting [1]) is over 0.5 µM; at ACE (Sigma, A2580) (12 concentrations) it was over 50 µM; on Carboxypeptidase A (12 concentrations) it was over 50 µM.
`CC(C)CC(N[C@@H](CNc1ccccc1)C(=O)O)C(=O)O` (single isomer, unassigned) [FI, 2-(1-Carboxy-2-phenylamino-ethylamino)-4-methyl-pentanoic acid]: the Ki at ACE-2 (setting [1]) is over 0.5 µM; on ACE (Sigma, A2580) (12 concentrations) it was over 50 µM; at Carboxypeptidase A (12 concentrations), over 50 µM.
Turning to `CC(C)CC(N[C@@H](Cc1cncn1COCc1ccccc1)C(=O)NCCc1ccccc1)C(=O)O` (single isomer, unassigned) [FM, 2-[2-(3-Benzyloxymethyl-3H-imidazol-4-yl)-1-phenethylcarbamoyl-ethylamino]-4-methyl-pentanoic acid], the Ki on ACE-2 (setting [1]) was over 0.5 µM; on ACE (Sigma, A2580) (12 concentrations) it was over 50 µM; at Carboxypeptidase A (12 concentrations) it was over 50 µM.
For the molecule `CC(C)CC(N[C@@H](Cc1cncn1Cc1cccc2ccccc12)C(=O)O)C(=O)O` (single isomer, unassigned) [GL, 2-[1-Carboxy-2-(3-naphthalen-1-ylmethyl-3Himidazol-4-yl)-ethylamino]4-methyl-pentanoic acid], the Ki on ACE (Sigma, A2580) (12 concentrations) lay within 10 to 50 µM; on Carboxypeptidase A (12 concentrations), 10 to 50 µM.
`CC(C)CC(N[C@@H](Cc1cncn1Cc1ccc(Cl)cc1)C(=O)O)C(=O)O` (single isomer, unassigned) [GN, 2-[1-Carboxy-2-[3-(4-chloro-benzyl)-3H-imidazol-4-yl]-ethylamino]4-methyl-pentanoic acid]: the Ki was over 50 µM on ACE (Sigma, A2580) (12 concentrations) and over 50 µM on Carboxypeptidase A (12 concentrations).
Take `CC(C)CC(N[C@@H](Cc1cncn1Cc1ccc(C(=O)O)cc1)C(=O)O)C(=O)O` (single isomer, unassigned) [GO, 4-[5-[2-Carboxy-2-(1-carboxy-3-methyl-butylamino)-ethyl]-imidazol-1-ylmethyl]-benzoic acid]: the Ki was over 0.5 µM on ACE-2 (setting [1]); over 50 µM on ACE (Sigma, A2580) (12 concentrations); over 50 µM at Carboxypeptidase A (12 concentrations).
With `CC(C)CC(N[C@@H](Cc1cncn1Cc1ccc(C(=O)O)cc1)C(=O)O)C(=O)O` (single isomer, unassigned) [GP, 4-[5-[2-Carboxy-2-(1-carboxy-3-methyl-butylamino)-ethyl]-imidazol-1-ylmethyl]-benzoic acid], the Ki on ACE (Sigma, A2580) (12 concentrations) is over 50 µM; at Carboxypeptidase A (12 concentrations), over 50 µM.
As for `CC(C)CC(N[C@@H](Cc1cncn1Cc1ccc(C#N)cc1)C(=O)O)C(=O)O` (single isomer, unassigned) [HA, 2-[1-Carboxy-2-[3-(4-cyano-benzyl)-3H-imidazol-4-yl]-ethylamino)4-methyl-pentanoic acid], the Ki on ACE-2 (setting [2]) was under 0.1 µM; on ACE-2 (setting [3]), 0.05 to 0.1 µM; on ACE (Sigma, A2580) (12 compound concentrations), 10 to 50 µM; on Carboxypeptidase A (12 compound concentrations) it was 10 to 50 µM.
For the molecule `CC(C)CC(N[C@@H](Cc1cncn1Cc1ccc(C(C)(C)C)cc1)C(=O)O)C(=O)O` (single isomer, unassigned) [HY, 2-[2-[3-(4-tert-Butyl-benzyl)-3H-imidazol-4-yl]-1-carboxy-ethylamino)-4-methyl-pentanoic acid], the Ki is under 0.1 µM on ACE-2 (setting [2]); 0.05 to 0.1 µM on ACE-2 (setting [3]); under 10 µM on ACE (Sigma, A2580) (12 compound concentrations); under 10 µM on Carboxypeptidase A (12 compound concentrations).
Consider `O=C(O)C(CCc1ccccc1)N1CCC[C@H]1C(=O)O` (stereo in doubt) [AC, 1-(1-Carboxy-3-phenyl-propyl)-pyrrolidine-2-carboxylic acid], for which the Ki at ACE-2 (setting [1]) was over 0.5 µM; on ACE (Sigma, A2580) (12 concentrations), over 50 µM; at Carboxypeptidase A (12 concentrations), over 50 µM.
On to `CC(C)CC(N[C@@H](Cc1c[nH]cn1)C(=O)O)C(=O)O` (stereo in doubt) [AE, 2-[1-Carboxy-2-(1H-imidazol-4-yl)-ethylamino]4-methyl-pentanoic acid], for which the Ki at ACE-2 (setting [1]) is over 0.5 µM; on ACE (Sigma, A2580) (12 concentrations) it was over 50 µM; on Carboxypeptidase A (12 concentrations), over 50 µM.
For the molecule `CC(C)CC(N[C@H](Cc1cn(Cc2ccccc2)cn1)C(=O)O)C(=O)O` (stereo partly drawn) [CX, 2-[2-(1-Benzyl-1H-imidazol-4-yl)-1-carboxy-ethylamino]-4-methyl-pentanoic acid], the Ki is 10 to 50 µM at ACE (Sigma, A2580) (12 concentrations) and over 50 µM on Carboxypeptidase A (12 concentrations).
For `O=C(O)C(CCc1ccccc1)N[C@@H](Cc1c[nH]cn1)C(=O)O` (stereo partly drawn) [ER, 2-[1-Carboxy-2-(1H-imidazol-4-yl)-ethylamino]4-phenyl-butync acid], the Ki is over 50 µM at ACE (Sigma, A2580) (12 concentrations) and over 50 µM at Carboxypeptidase A (12 concentrations).
Turning to `CC(C)CC(N[C@@H](Cc1cn(Cc2ccc(Cl)cc2)cn1)C(=O)O)C(=O)O` (stereo partly drawn) [EU, 2-[1-Carboxy-2-[1-(4-chloro-benzyl)-1H-imidazol-4-yl]-ethylamino)4-methyl-pentanoic acid], the Ki at ACE (Sigma, A2580) (12 concentrations) was over 50 µM; at Carboxypeptidase A (12 concentrations), 10 to 50 µM.
Take `CC(C)CC(NC(Cc1cncn1Cc1cccc([N+](=O)[O-])c1)C(=O)O)C(=O)O` (stereo not drawn) [GA]: the Ki was over 50 µM on ACE (Sigma, A2580) (12 concentrations) and 10 to 50 µM at Carboxypeptidase A (12 concentrations).
As to `O=C(O)C(Cc1ccccc1)NC(Cc1cncn1Cc1ccccc1)C(=O)O` (stereo not drawn) [GE, 3-(3-Benzyl-3H-imidazol-4-yl)-2-(1-carboxy-2-phenyl-ethylamino)-propronic acid], the Ki at ACE (Sigma, A2580) (12 concentrations) was over 50 µM; at Carboxypeptidase A (12 concentrations) it was over 50 µM.
